Results published in US8383629B2, “Inhibitors of 11β-hydroxysteroid dehydrogenase type 1” (Vitae Pharmaceuticals, Inc., priority 2008, dated 2013).

Biological target: T1, human 11β-HSD1 (Homo sapiens, UniProt P28845)
T1 construct: expressed in transfected cells; host or cells: CHO cells (microsomes)
Assay: Inhibition of microsomal preparation of 11β-HSD1 (SPA, Biological Test Example 1)
Assay type: biochemical
Details: for IC50: microsomes from CHO cells overexpressing human 11β-HSD1, read-out: IC50 Range
Protocol: The inhibition of microsomal preparation of 11β-HSD1 by compounds of the invention was measured essentially as previously described (K. Solly, S. S. Mundt, H. J. Zokian, G. J. Ding, A. Hermanowski-Vosatka, B. Strulovici, and W. Zheng, High-Throughput Screening of 11-Beta-Hydroxysteroid Dehydrogenase Type 1 in Scintillation Proximity Assay Format. Assay Drug Dev Technol 3 (2005) 377-384). All reactions were carried out at rt in 96 well clear flexible PET Microbeta plates (PerkinElmer). The assay begins by dispensing 49 μl of substrate solution (50 mM HEPES, pH 7.4, 100 mM KCl, 5 mM NaCl, 2 mM MgCl2, 2 mM NADPH and 160 nM [^3H]cortisone (1 Ci/mmol)) and mixing in 1 μL of the test compounds in DMSO previously diluted in half-log increments (8 points) starting at 0.1 mM. After a 10 minute pre-incubation, 50 μL of enzyme solution containing microsomes isolated from CHO cells overexpressing human 11β-HSD1 (10-20 μg/ml of total protein) was added, and the plates were incubated for 90 minutes at rt. The reaction was stopped by adding 50 μl of the SPA beads suspension containing 10 μM 18β-glycyrrhetinic acid, 5 mg/ml protein A coated YSi SPA beads (GE Healthcare) and 3.3 μg/ml of anti-cortisol antibody (East Coast Biologics) in Superblock buffer (Bio-Rad). The plates were shaken for 120 minutes at rt, and the SPA signal corresponding to [^3H]cortisol was measured on a Microbeta plate reader.

T1 sequence (P28845 whole entry): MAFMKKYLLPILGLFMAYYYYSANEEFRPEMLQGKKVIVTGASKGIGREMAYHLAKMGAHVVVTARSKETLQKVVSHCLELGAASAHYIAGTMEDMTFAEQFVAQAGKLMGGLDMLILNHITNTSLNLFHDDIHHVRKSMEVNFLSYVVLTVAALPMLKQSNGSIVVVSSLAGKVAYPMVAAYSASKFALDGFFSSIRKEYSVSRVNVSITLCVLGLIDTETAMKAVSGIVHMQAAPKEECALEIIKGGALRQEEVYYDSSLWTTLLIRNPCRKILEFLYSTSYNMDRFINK

SMILES	inhibition at 0.1 µM (100 nM) [%]	inhibition at 0.111 µM (111 nM) [%]	IC50 [nM]	Average % inhibition at 111 nM (111 nM, 0.111 µM) [%]	Average % inhibition at 100 nM (100 nM, 0.1 µM) [%]
CCOC(=O)CC1CC2(CCN(C(=O)/C=C/c3ccccc3C(F)(F)F)CC2)c2c(Br)cccc21 (racemic) [EXAMPLE 1, (±)-(E)-ethyl 2-(7-bromo-1′-(3-(2-(trifluoromethyl)phenyl)acryloyl)-2,3-dihydrospiro[indene-1,4′-piperidine]-3-yl)acetate]	94.9	89.4	< 100	–	–
O=C(O)CC1CC2(CCN(C(=O)/C=C/c3ccccc3C(F)(F)F)CC2)c2c(Br)cccc21 (racemic) [EXAMPLE 2, (±)-(E)-2-(7-bromo-1′-(3-(2-(trifluoromethyl)phenyl)acryloyl)-2,3-dihydrospiro[indene-1,4′-piperidine]-3-yl)acetic acid]	91.7	97.4	< 100	–	–
O=C(O)CC1CC2(CCN(C(=O)/C=C/c3ccccc3C(F)(F)F)CC2)c2c(Cl)cccc21 (racemic) [EXAMPLE 3, (±)-(E)-2-(7-chloro-1′-(3-(2-(trifluoromethyl)phenyl)acryloyl)-2,3-dihydrospiro[indene-1,4′-piperidine]-3-yl)acetic acid]	96.3	–	< 100	–	–
O=C(O)CC1CC2(CCN(C(=O)/C=C/c3ccc(F)cc3C(F)(F)F)CC2)c2c(Cl)cccc21 (racemic) [EXAMPLE 4, (±)-(E)-2-(7-chloro-1′-(3-(4-fluoro-2-(trifluoromethyl)phenyl)acryloyl)-2,3-dihydrospiro[indene-1,4′-piperidine]-3-yl)acetic acid]	–	94.2	< 100	–	–
O=C(O)CC1CC2(CCN(C(=O)/C=C/c3cc(F)ccc3C(F)(F)F)CC2)c2c(Cl)cccc21 (racemic) [EXAMPLE 5, (±)-(E)-2-(7-chloro-1′-(3-(5-fluoro-2-(trifluoromethyl)phenyl)acryloyl)-2,3-dihydrospiro[indene-1,4′-piperidine]-3-yl)acetic acid]	–	83.3	< 100	–	–
NC(=O)CC1CC2(CCN(C(=O)/C=C/c3ccccc3C(F)(F)F)CC2)c2c(Cl)cccc21 (racemic) [EXAMPLE 6, (±)-(E)-2-(7-chloro-1′-(3-(2-(trifluoromethyl)phenyl)acryloyl)-2,3-dihydrospiro[indene-1,4′-piperidine]-3-yl)acetamide]	–	97.4	< 100	–	–
CNCCN(C)C(=O)CC1CC2(CCN(C(=O)/C=C/c3ccccc3C(F)(F)F)CC2)c2c(Cl)cccc21 (racemic) [EXAMPLE 7, (±)-(E)-2-(7-chloro-1′-(3-(2-(trifluoromethyl)phenyl)acryloyl)-2,3-dihydrospiro[indene-1,4′-piperidine]-3-yl)-N-methyl-N-(2-(methylamino)ethyl)acetamide]	–	87.3	< 100	–	–
O=C(O)CC1CC2(CCN(C(=O)/C=C/c3ccccc3Cl)CC2)c2c(Cl)cccc21 (racemic) [EXAMPLE 8, (±)-(E)-2-(7-chloro-1′-(3-(2-chlorophenyl)acryloyl)-2,3-dihydrospiro[indene-1,4′-piperidine]-3-yl)acetic acid]	–	85.5	< 100	–	–
O=C(O)CC1CC2(CCN(C(=O)/C=C/c3cccc(Cl)c3Cl)CC2)c2c(Cl)cccc21 (racemic) [EXAMPLE 9, (±)-(E)-2-(7-chloro-1′-(3-(2,3-dichlorophenyl)acryloyl)-2,3-dihydrospiro[indene-1,4′-piperidine]-3-yl)acetic acid]	–	77.8	< 100	–	–
Cc1ccc2c(c1)C1(CCN(C(=O)/C=C/c3ccccc3C(F)(F)F)CC1)CC2CC(=O)O (racemic) [EXAMPLE 10, (±)-(E)-2-(6-methyl-1′-(3-(2-(trifluoromethyl)phenyl)acryloyl)-2,3-dihydrospiro[indene-1,4′-piperidine]-3-yl)acetic acid]	–	87.7	< 100	–	–
O=C(O)CC1CC2(CCN(C(=O)/C=C/c3ccccc3C(F)(F)F)CC2)c2cc(F)ccc21 (racemic) [EXAMPLE 11, (±)-(E)-2-(6-fluoro-1′-(3-(2-(trifluoromethyl)phenyl)acryloyl)-2,3-dihydrospiro[indene-1,4′-piperidine]-3-yl)acetic acid]	–	75.1	< 100	–	–
Cc1ccc2c(c1)C(CC(=O)O)CC21CCN(C(=O)/C=C/c2ccccc2C(F)(F)F)CC1 (racemic) [EXAMPLE 12, (±)-(E)-2-(5-methyl-1′-(3-(2-(trifluoromethyl)phenyl)acryloyl)-2,3-dihydrospiro[indene-1,4′-piperidine]-3-yl)acetic acid]	–	90.3	< 100	–	–
NC(=O)CC1CC2(CCN(C(=O)/C=C/c3ccccc3C(F)(F)F)CC2)c2c(Br)cccc21 (racemic) [EXAMPLE 13, (±)-(E)-2-(7-bromo-1′-(3-(2-(trifluoromethyl)phenyl)acryloyl)-2,3-dihydrospiro[indene-1,4′-piperidine]-3-yl)acetamide]	94.6	94.8	< 100	–	–
NC(=O)CC1CC2(CCN(C(=O)/C=C/c3ccccc3C(F)(F)F)CC2)c2cc(F)ccc21 (racemic) [EXAMPLE 14, (±)-(E)-2-(6-fluoro-1′-(3-(2-(trifluoromethyl)phenyl)acryloyl)-2,3-dihydrospiro[indene-1,4′-piperidine]-3-yl)acetamide]	85.6	90.9	< 100	–	–
O=C(/C=C/c1ccccc1C(F)(F)F)N1CCC2(CC1)CC(O)c1cccc(Br)c12 (racemic) [EXAMPLE 16, (±)-(E)-1-(7-bromo-3-hydroxy-2,3-dihydrospiro[indene-1,4′-piperidine]-1′-yl)-3-(2-(trifluoromethyl)phenyl)prop-2-en-1-one]	95.3	98.6	< 100	–	–
NC1CC2(CCN(C(=O)/C=C/c3ccccc3C(F)(F)F)CC2)c2c(Br)cccc21 (racemic) [EXAMPLE 18, (±)-(E)-1-(3-amino-7-bromo-2,3-dihydrospiro[indene-1,4′-piperidine]-1′-yl)-3-(2-(trifluoromethyl)phenyl)prop-2-en-1-one]	–	93.3	< 100	–	–
CNC(=O)NC1CC2(CCN(C(=O)/C=C/c3ccccc3C(F)(F)F)CC2)c2c(Br)cccc21 (racemic) [EXAMPLE 19, (±)-(E)-1-(7-bromo-1′-(3-(2-(trifluoromethyl)phenyl)acryloyl)-2,3-dihydrospiro[indene-1,4′-piperidine]-3-yl)-3-methylurea]	98.1	–	< 100	–	–
NC1CC2(CCN(C(=O)Cc3ccccc3C(F)(F)F)CC2)c2c(Br)cccc21 (racemic) [EXAMPLE 46, (±)-1-(3-amino-7-bromo-2,3-dihydrospiro[indene-1,4′-piperidine]-1′-yl)-2-(2-(trifluoromethyl)phenyl)ethanone]	–	78.6	< 100	–	–
O=C(O)CC1CC2(CCN(C(=O)CCc3ccccc3C(F)(F)F)CC2)c2c(Br)cccc21 (single isomer, unassigned) [EXAMPLE 70.1]	–	97.6	< 100	–	–
O=C(O)CC1CC2(CCN(C(=O)CCc3ccccc3C(F)(F)F)CC2)c2c(Br)cccc21 (single isomer, unassigned) [EXAMPLE 70.2]	95.7	–	< 100	99.2	–
O=C(O)CC1CC2(CCN(C(=O)/C=C/c3ccccc3C(F)(F)F)CC2)c2c(Br)cccc21 (single isomer, unassigned; isomer 1) [EXAMPLE 2.1, (±)-(E)-2-(7-bromo-1′-(3-(2-(trifluoromethyl)phenyl)acryloyl)-2,3-dihydrospiro[indene-1,4′-piperidine]-3-yl)acetic acid isomer 1]	96.6	–	< 100	–	–
O=C(O)CC1CC2(CCN(C(=O)/C=C/c3ccccc3C(F)(F)F)CC2)c2c(Br)cccc21 (single isomer, unassigned; isomer 2) [EXAMPLE 2.2, (E)-2-(7-bromo-1′-(3-(2-(trifluoromethyl)phenyl)acryloyl)-2,3-dihydrospiro[indene-1,4′-piperidine]-3-yl)acetic acid isomer 2]	–	–	< 100	–	100.3
O=C1CC2(CCN(C(=O)/C=C/c3ccccc3C(F)(F)F)CC2)c2c(Br)cccc21 [EXAMPLE 15, (E)-7-bromo-1′-(3-(2-(trifluoromethyl)phenyl)acryloyl)spiro[indene-1,4′-piperidin]-3(2H)-one]	95.3	92.6	< 100	–	–
O=C1CC2(CCN(C(=O)/C=C/c3c(Cl)cccc3Cl)CC2)c2c(Br)cccc21 [EXAMPLE 17, (E)-7-bromo-1′-(3-(2,6-dichlorophenyl)acryloyl)spiro[indene-1,4′-piperidin]-3(2H)-one]	–	81.2	< 100	–	–
CC(C)(C)OC(=O)N1Cc2ccccc2C2(CCN(C(=O)/C=C/c3ccccc3C(F)(F)F)CC2)C1 [EXAMPLE 20, (E)-tert-butyl 1′-(3-(2-(trifluoromethyl)phenyl)acryloyl)-1H-spiro[isoquinoline-4,4′-piperidine]-2(3H)-carboxylate]	–	29	< 100	–	–
